Laboratory results from the CheMixHub viscosity set.
Values joined by “and” are separate entries in the source; they are usually repeats but may differ in a detail not shown here. Equal entries are not always repeated.

Test: xn = mol fraction of the nth substance listed

C1COCO1 + CCCO
303.15 K, 101 kPa
Details | viscosity [mPa·s]
x1 = 0.08269 | 1.258
x1 = 0.1686 | 1.067
x1 = 0.258 | 0.9345
x1 = 0.351 | 0.8208
x1 = 0.4479 | 0.7339
x1 = 0.5489 | 0.6454
x1 = 0.6543 | 0.592
x1 = 0.7644 | 0.5684
x1 = 0.8795 | 0.5564

C1COCO1 + CCCCOCCO
298.15 K, 101 kPa
Details | viscosity [mPa·s]
x1 = 0.1506 | 2.2
x1 = 0.2851 | 1.773
x1 = 0.4061 | 1.465
x1 = 0.5154 | 1.229
x1 = 0.6147 | 1.053
x1 = 0.7053 | 0.9156
x1 = 0.7882 | 0.8012
x1 = 0.8645 | 0.7116
x1 = 0.9349 | 0.6419

CC(=O)c1ccccc1 + Cc1ccccc1
viscosity, 101 kPa
Details | x2 = 0.1093 | x2 = 0.2145 | x2 = 0.3206 | x2 = 0.4281 | x2 = 0.5229 | x2 = 0.6213 | x2 = 0.7157 | x2 = 0.8392 | x2 = 0.9074
298.15 K | 1.561 mPa·s and 1.561 mPa·s | 1.446 mPa·s and 1.446 mPa·s | 1.329 mPa·s and 1.329 mPa·s | 1.211 mPa·s and 1.211 mPa·s | 1.105 mPa·s and 1.105 mPa·s | 0.9949 mPa·s and 0.9949 mPa·s | 0.8879 mPa·s and 0.8879 mPa·s | 0.7472 mPa·s and 0.7472 mPa·s | 0.6694 mPa·s and 0.6694 mPa·s
303.15 K | 1.426 mPa·s and 1.426 mPa·s | 1.323 mPa·s and 1.323 mPa·s | 1.218 mPa·s and 1.218 mPa·s | 1.112 mPa·s and 1.112 mPa·s | 1.018 mPa·s and 1.018 mPa·s | 0.9188 mPa·s and 0.9188 mPa·s | 0.8233 mPa·s and 0.8233 mPa·s | 0.6978 mPa·s and 0.6978 mPa·s | 0.6286 mPa·s and 0.6286 mPa·s
308.15 K | 1.31 mPa·s and 1.31 mPa·s | 1.217 mPa·s and 1.217 mPa·s | 1.123 mPa·s and 1.123 mPa·s | 1.027 mPa·s and 1.027 mPa·s | 0.9425 mPa·s and 0.9425 mPa·s | 0.8535 mPa·s and 0.8535 mPa·s | 0.7678 mPa·s and 0.7678 mPa·s | 0.6554 mPa·s and 0.6554 mPa·s | 0.5933 mPa·s and 0.5933 mPa·s

ClC(Cl)C(Cl)(Cl)Cl + CC(C)=O
298.15 K, 101 kPa
Details | viscosity [mPa·s]
x2 = 0.1476 | 1.93
x2 = 0.3178 | 1.52
x2 = 0.5103 | 1.12
x2 = 0.7037 | 0.695
x2 = 0.9068 | 0.417

C[N+](C)(C)CCO.O=C([O-])CC(=O)O + O
viscosity [mPa·s], 100 kPa
Details | x2 = 0.01 | x2 = 0.17 | x2 = 0.22 | x2 = 0.38 | x2 = 0.5 | x2 = 0.58 | x2 = 0.632 | x2 = 0.673 | x2 = 0.864
293.15 K | 12050 | 4381 | 3565 | 1377 | 622.1 | 312.8 | 206.3 | 145.4 | 14.3
298.15 K | 7430 | 2850 | 2316 | 941.2 | 438.7 | 227 | 152.2 | 108.9 | 11.9
303.15 K | 4675 | 1908 | 1563 | 651 | 317.1 | 168.5 | 114.7 | 83.2 | 9.9
308.15 K | 3076 | 1312 | 1084 | 467.9 | 234.5 | 127.7 | 88.2 | 64.8 | 8.4
313.15 K | 2089 | 924.5 | 770 | 343.9 | 177.1 | 98.6 | 69 | 51.3 | 7
318.15 K | 1453 | 666.7 | 559.7 | 257.6 | 136.3 | 77.5 | 54.9 | 41.2 | 6.2
323.15 K | 1034 | 491 | 415.2 | 199.7 | 106.8 | 61.8 | 44.4 | 33.6 | 5.4

CCC(C)C(C)C (stereo unspecified) + COC(C)(C)C
298.15 K, 101.33 kPa
Details | viscosity [mPa·s]
x2 = 0.0983 | 0.3824
x2 = 0.1999 | 0.3758
x2 = 0.2986 | 0.3693
x2 = 0.3972 | 0.363
x2 = 0.4975 | 0.3572
x2 = 0.5979 | 0.3519
x2 = 0.7006 | 0.3469
x2 = 0.797 | 0.3423
x2 = 0.8949 | 0.3387

CCCCCCCCc1ccccc1 + CCCCCCCCCCCCCCCC
viscosity [mPa·s], 102 kPa
Details | x1 = 0.1177 | x1 = 0.2297 | x1 = 0.3377 | x1 = 0.4423 | x1 = 0.5431 | x1 = 0.6411 | x1 = 0.7351 | x1 = 0.8263 | x1 = 0.9146
293.15 K | 3.28 | 3.16 | 3.05 | 2.94 | 2.85 | 2.78 | 2.71 | 2.65 | 2.62
303.15 K | 2.61 | 2.52 | 2.44 | 2.36 | 2.3 | 2.25 | 2.19 | 2.15 | 2.12
313.15 K | 2.13 | 2.06 | 2 | 1.94 | 1.89 | 1.86 | 1.81 | 1.78 | 1.76
323.15 K | 1.77 | 1.72 | 1.67 | 1.63 | 1.59 | 1.56 | 1.52 | 1.5 | 1.48

CN1CCCCCC1=O + O
298.16 K, 101 kPa
Details | viscosity [mPa·s]
x2 = 0.0975 | 5.35
x2 = 0.2528 | 6.17
x2 = 0.4046 | 7.19
x2 = 0.4996 | 7.85
x2 = 0.577 | 8.2
x2 = 0.63 | 8.28
x2 = 0.7444 | 7.43
x2 = 0.8512 | 5.1

COCOC + C1C[C@@H]2[C@H]3CC[C@H](C3)[C@@H]2C1
viscosity [mPa·s], 100 kPa
Details | x1 = 0.1048 | x1 = 0.2024 | x1 = 0.3042 | x1 = 0.4061 | x1 = 0.5027 | x1 = 0.5936 | x1 = 0.7008 | x1 = 0.8058 | x1 = 0.9096
293.15 K | 2.257 | 1.767 | 1.398 | 1.122 | 0.901 | 0.749 | 0.616 | – | 0.428
298.15 K | 2.053 | 1.606 | 1.295 | 1.043 | 0.845 | 0.704 | 0.586 | 0.45 | 0.408
303.15 K | 1.903 | 1.483 | 1.202 | 0.964 | 0.797 | 0.664 | 0.558 | 0.433 | 0.393
308.15 K | 1.746 | 1.408 | 1.12 | 0.908 | 0.737 | 0.628 | 0.531 | 0.421 | 0.38
313.15 K | 1.615 | 1.3 | 1.047 | 0.846 | 0.716 | 0.594 | 0.507 | 0.402 | 0.368

CN(C)P(=O)(N(C)C)N(C)C + CC(C)O
303.15 K, 101.3 kPa
Details | viscosity [mPa·s]
x1 = 0.0867 | 1.855
x1 = 0.1008 | 1.87
x1 = 0.1839 | 1.937
x1 = 0.2608 | 1.991
x1 = 0.3481 | 2.075
x1 = 0.4017 | 2.136
x1 = 0.5056 | 2.279
x1 = 0.6052 | 2.407
x1 = 0.705 | 2.547
x1 = 0.7928 | 2.668
x1 = 0.8899 | 2.791
